Patent US10968215B2 (SHANGHAI HAIHE PHARMACEUTICAL CO., LTD., priority 2016, dated 2021)
Where two headings read alike, the source gives them in different places.

Target: PRC2 complex (EZH2 Y641F/EED/SUZ12/RbAp48/AEBP2) (Homo sapiens (Human), UniProt Q15910, Y641F)
Assay: Activity of a compound to PRC2 complex (EZH2 Y641F), HTRF
[1] = read-out: IC50 (EZH2_Y641F), EZH2 Y641F PRC2 complex, HTRF, class symbols

Chain of PRC2 complex (EZH2 Y641F/EED/SUZ12/RbAp48/AEBP2) (Q15910 whole entry Y641F): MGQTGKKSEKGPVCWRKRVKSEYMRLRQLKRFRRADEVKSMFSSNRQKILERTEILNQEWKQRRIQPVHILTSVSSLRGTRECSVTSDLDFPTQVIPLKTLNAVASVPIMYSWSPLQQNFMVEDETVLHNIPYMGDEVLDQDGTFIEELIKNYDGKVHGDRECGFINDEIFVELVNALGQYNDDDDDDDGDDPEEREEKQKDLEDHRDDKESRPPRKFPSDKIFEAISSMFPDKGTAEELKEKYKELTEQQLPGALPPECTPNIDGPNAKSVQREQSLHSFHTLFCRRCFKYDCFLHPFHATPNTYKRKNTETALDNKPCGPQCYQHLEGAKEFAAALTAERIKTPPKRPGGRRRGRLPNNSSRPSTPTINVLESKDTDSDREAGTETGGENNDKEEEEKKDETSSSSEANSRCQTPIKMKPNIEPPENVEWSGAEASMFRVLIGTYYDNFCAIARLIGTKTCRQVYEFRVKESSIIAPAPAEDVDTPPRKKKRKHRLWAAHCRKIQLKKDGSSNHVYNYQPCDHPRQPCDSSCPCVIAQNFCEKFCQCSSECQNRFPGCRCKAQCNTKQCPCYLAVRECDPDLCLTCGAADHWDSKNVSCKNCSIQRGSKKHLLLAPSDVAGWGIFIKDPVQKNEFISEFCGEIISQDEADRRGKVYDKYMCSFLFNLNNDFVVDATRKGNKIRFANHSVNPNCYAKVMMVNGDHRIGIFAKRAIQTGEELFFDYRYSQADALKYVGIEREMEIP
Chain of PRC2 complex (EZH2 Y641F/EED/SUZ12/RbAp48/AEBP2) (O75530 whole entry partner): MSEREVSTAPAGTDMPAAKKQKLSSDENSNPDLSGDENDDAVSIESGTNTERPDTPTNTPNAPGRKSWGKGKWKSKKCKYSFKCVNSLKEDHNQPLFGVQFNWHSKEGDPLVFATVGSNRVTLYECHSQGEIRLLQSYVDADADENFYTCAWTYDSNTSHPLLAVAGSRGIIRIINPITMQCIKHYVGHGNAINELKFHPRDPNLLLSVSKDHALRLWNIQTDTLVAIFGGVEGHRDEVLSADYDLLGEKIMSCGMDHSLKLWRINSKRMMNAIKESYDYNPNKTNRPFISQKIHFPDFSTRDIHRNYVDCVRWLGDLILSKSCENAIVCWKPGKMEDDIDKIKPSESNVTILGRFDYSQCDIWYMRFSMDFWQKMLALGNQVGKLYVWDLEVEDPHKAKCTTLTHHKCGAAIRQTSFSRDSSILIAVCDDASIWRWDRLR
Chain of PRC2 complex (EZH2 Y641F/EED/SUZ12/RbAp48/AEBP2) (Q15022 whole entry partner): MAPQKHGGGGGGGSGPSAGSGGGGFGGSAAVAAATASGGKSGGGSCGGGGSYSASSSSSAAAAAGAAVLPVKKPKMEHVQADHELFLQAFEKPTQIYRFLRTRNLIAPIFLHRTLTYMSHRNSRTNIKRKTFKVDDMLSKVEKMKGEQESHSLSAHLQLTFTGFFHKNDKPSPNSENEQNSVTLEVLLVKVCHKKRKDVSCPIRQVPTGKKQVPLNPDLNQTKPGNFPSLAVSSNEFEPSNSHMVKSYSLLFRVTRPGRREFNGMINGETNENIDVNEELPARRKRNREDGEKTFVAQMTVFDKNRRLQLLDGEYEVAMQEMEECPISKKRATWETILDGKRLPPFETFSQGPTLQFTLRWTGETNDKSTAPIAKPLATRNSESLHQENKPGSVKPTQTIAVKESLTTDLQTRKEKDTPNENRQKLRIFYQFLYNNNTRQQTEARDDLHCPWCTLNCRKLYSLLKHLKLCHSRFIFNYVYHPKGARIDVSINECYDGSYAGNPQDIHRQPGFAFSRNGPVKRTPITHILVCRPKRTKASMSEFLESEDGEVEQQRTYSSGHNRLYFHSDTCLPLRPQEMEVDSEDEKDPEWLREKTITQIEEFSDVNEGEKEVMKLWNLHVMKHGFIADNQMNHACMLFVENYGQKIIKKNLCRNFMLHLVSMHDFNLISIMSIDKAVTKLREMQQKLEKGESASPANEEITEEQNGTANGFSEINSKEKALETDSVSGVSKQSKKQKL
Chain of PRC2 complex (EZH2 Y641F/EED/SUZ12/RbAp48/AEBP2) (Q09028 whole entry partner): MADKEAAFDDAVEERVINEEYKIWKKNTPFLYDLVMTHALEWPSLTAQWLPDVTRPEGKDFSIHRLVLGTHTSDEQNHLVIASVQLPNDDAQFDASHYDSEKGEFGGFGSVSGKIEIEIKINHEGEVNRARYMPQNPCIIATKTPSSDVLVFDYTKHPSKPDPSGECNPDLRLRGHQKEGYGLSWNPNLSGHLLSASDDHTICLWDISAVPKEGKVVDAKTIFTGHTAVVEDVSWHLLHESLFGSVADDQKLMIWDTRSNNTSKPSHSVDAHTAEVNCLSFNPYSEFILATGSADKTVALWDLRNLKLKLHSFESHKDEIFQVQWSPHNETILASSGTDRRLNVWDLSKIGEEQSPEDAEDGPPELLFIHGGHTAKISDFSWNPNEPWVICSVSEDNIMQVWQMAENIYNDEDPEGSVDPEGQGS
Chain of PRC2 complex (EZH2 Y641F/EED/SUZ12/RbAp48/AEBP2) (Q6ZN18 whole entry partner): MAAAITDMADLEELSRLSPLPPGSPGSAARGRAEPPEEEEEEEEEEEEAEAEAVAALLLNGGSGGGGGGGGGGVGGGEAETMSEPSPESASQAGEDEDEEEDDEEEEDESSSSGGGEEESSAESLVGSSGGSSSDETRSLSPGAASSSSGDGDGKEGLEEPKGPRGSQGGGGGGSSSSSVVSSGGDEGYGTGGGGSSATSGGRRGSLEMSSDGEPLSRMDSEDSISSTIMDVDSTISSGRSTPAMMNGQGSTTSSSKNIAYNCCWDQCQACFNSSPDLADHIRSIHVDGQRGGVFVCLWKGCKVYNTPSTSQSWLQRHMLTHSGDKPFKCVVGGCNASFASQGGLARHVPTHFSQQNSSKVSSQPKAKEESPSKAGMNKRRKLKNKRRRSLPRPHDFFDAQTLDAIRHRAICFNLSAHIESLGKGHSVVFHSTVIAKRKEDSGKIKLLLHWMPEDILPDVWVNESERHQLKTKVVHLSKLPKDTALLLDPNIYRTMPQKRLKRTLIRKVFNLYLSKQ
Method: Determination of the Activity of a Compound to PRC2 Complex (EZH2Y641F):
Detection Method: Homogeneous Time-Resolved Fluorescence (HTRF)
Reaction was conducted in darkness at room temperature for 4 h. […] The IC50 values of the compounds were calculated using SoftMax Pro 5.4.1 software.

Compound | IC50 [1] | IC50
COC(c1ccc(Br)cc1)c1c(C)c(C(=O)NCc2c(C)cc(C)[nH]c2=O)cc2cccn12 (stereo not drawn) [Example 24, 5-((4-bromophenyl)(methoxy)methyl)-N-((4,6-dimethyl-2-oxo-1,2-dihydropyridin-3-yl)methyl)-6-methylindolizine-7-carboxamide] | > 10 µM | –
CNc1cc(-c2ccn3c([C@H](C)N4CCN(CC(F)(F)F)CC4)c(C)c(C(=O)NCc4c(OC)cc(C)[nH]c4=O)cc23)ccn1 (single isomer, unassigned) [Compound 182, (S)—N-((4-methoxy-6-methyl-2-oxo-1,2-dihydropyridin-3-yl)methyl)-6-methyl-1-(2-(methylamino)pyridin-4-yl)-5-(1-(4-(2,2,2-trifluoroethyl)piperazin-1-yl)ethyl)indolizine-7-formamide or (R)—N-((4-methoxy-6-methyl-2-oxo-1,2-dihydropyridin-3-yl)methyl)-6-methyl-1-(2-(methylamino)pyridin-4-yl)-5-(1-(4-(2,2,2-trifluoroethyl)piperazin-1-yl)ethyl)indolizine-7-formamide] | 0.1 to 1 µM | –
Cc1cc(C)c(CNC(=O)c2cc3cc(-c4cncs4)cn3c(C(C)N3CCC(N(C)C)CC3)c2C)c(=O)[nH]1 (stereo not drawn) [Example 139] | – | < 0.1 µM
COc1cc(C)[nH]c(=O)c1CNC(=O)c1cc2c(-c3cnc(C)nc3)ccn2c(C(C)N2CCN(CC(F)(F)F)CC2)c1C (stereo not drawn) [Compound 196, N-((4-methoxy-6-methyl-2-oxo-1,2-dihydropyridin-3-yl)methyl)-6-methyl-1-(2-methylpyrimidin-5-yl)-5-(1-(4-(2,2,2-trifluoroethyl)piperazin-1-yl)ethyl)indolizine-7-carboxamide] | – | < 0.1 µM
Cc1cc(C(F)(F)F)c(CNC(=O)c2cc3c(-c4ccc(N)nc4)ccn3c(C(C)N3CCN(CC(F)(F)F)CC3)c2C)c(=O)[nH]1 (stereo not drawn) [Compound 186, 1-(6-aminopyridin-3-yl)-6-methyl-N-((6-methyl-2-oxo-4-(trifluoromethyl)-1,2-dihydropyridine-3-yl)methyl)-5-(1-(4-(2,2,2-trifluoroethyl)piperazin-1-yl)ethyl)indolizine-7-carboxamide] | < 0.1 µM | –
Cc1cc(C)c(CNC(=O)c2cc3cc(C4=CCNCC4)cn3c(C(C)N3CCOCC3)c2C)c(=O)[nH]1 (stereo not drawn) [Example 45, N-((4,6-dimethyl-2-oxo-1,2-dihydropyridin-3-yl)methyl)-6-methyl-5-(1-morphinolinylethyl)-2-(1,2,3,6-tetrahydropyridin-4-yl)indolizine-7-carboxamide] | 1 to 10 µM | –
Cc1cc(C)c(CNC(=O)c2cc3cc(Br)cn3c(C(C)Oc3ccc(N(C)C)cc3)c2C)c(=O)[nH]1 (stereo not drawn) [Example 30] | < 0.1 µM | –
COc1cc(C)[nH]c(=O)c1CNC(=O)c1cc2c(-c3ccnc(N(C)C)c3)ccn2c([C@H](C)N2CCN(CC(F)(F)F)CC2)c1C (single isomer, unassigned) [Compound 171, (S)-1-(2-(dimethylamino)pyridin-4-yl)-N-((4-methoxy-6-methyl-2-oxo-1,2-dihydropyridine-3-yl)methyl)-6-methyl-5-(1-(4-(2,2,2-trifluoroethyl)piperazin-1-yl)ethyl)indolizine-7-carboxamide or (R) 1-(2-(dimethylamino)pyridin-4-yl)-N-((4-methoxy-6-methyl-2-oxo-1,2-dihydropyridine-3-yl)methyl)-6-methyl-5-(1-(4-(2,2,2-trifluoroethyl)piperazin-1-yl)ethyl)indolizine-7-carboxamide] | < 0.1 µM | –
COc1cc(C)[nH]c(=O)c1CNC(=O)c1cc2c(-c3ccnc(N(C)C)c3)ccn2c(C(C)N2CCN(CC(F)(F)F)CC2)c1C (stereo not drawn) [Compound 170, 1-(2-(dimethylamino)pyridin-4-yl)-N-((4-methoxy-6-methyl-2-oxo-1,2-dihydropyridin-3-yl)methyl)-6-methyl-5-(1-(4-(2,2,2-trifluoroethyl)piperazin-1-yl)ethyl)indolizine-7-carboxamide] | – | < 0.1 µM
(S)-1-Chloro-N-((4,6-dimethyl-2-oxo-1,2-dihydropyridin-3-yl)methyl)-6-methyl-5-(1-morphinolinylethyl)pyridazin-7-carboxamide or (R)-1-chloro-N-((4,6-dimethyl-2-oxo-1,2-dihydro)pyridin-3-yl)methyl)-6-methyl-5-(1-morphinolinylethyl)pyridazin-7-carboxamide [Compound 29] | 0.1 to 1 µM | –
COc1cc(C)[nH]c(=O)c1CNC(=O)c1cc2c(-c3cc(C)nc(C)c3)ccn2c(C(C)N2CCN(CC(F)(F)F)CC2)c1C (stereo not drawn) [Compound 173] | < 0.1 µM | –
COc1cc(-c2ccn3c([C@H](C)N4CCN(CC(F)(F)F)CC4)c(C)c(C(=O)NCc4c(OC)cc(C)[nH]c4=O)cc23)ccn1 (single isomer, unassigned) [Compound 195, (S)—N-((4-methoxy-6-methyl-2-oxo-1,2-dihydropyridin-3-yl)methyl)-1-(2-methoxypyridin-4-yl)-6-methyl-5-(1-(4-(2,2,2-trifluoroethyl)piperazin-1-yl)ethyl)indolizine-7-carboxamide or (R)—N-((4-methoxy-6-methyl-2-oxo-1,2-dihydropyridin-3-yl)methyl)-1-(2-methoxypyridin-4-yl)-6-methyl-5-(1-(4-(2,2,2-trifluoroethyl)piperazin-1-yl)ethyl)indolizine-7-carboxamide] | 0.1 to 1 µM | –
Cc1cc(C)c(CNC(=O)c2cc3cc(Br)cn3c(C(C)N3CCC(N4CCCC4)CC3)c2C)c(=O)[nH]1 (stereo not drawn) [Example 144, 2-bromo-N-((4,6-dimethyl-2-oxo-1,2-dihydropyridin-3-yl)methyl)-5-(1-(4-hydroxypiperidin-1-yl)ethyl)-6-indolizine-7-carboxamide] | 0.1 to 1 µM | –
Cc1cc(C)c(CNC(=O)c2cc3cccn3c(C(C)OCC(C)C)c2C)c(=O)[nH]1 (stereo not drawn) [Example 6, N-((4,6-Dimethyl-2-oxo-1,2-dihydropyridin-3-yl)methyl)-5-(1-isobutyloxyethyl)-6-methylindolizine-7-carboxamide] | 1 to 10 µM | –
Cc1cc(C)c(CNC(=O)c2cc3cc(-c4cccnc4)cn3c(C(C)N3CCC(N(C)C)CC3)c2C)c(=O)[nH]1 (stereo not drawn) [Example 48, N-((4,6-dimethyl-2-oxo-1,2-dihydropyridin-3-yl)methyl)-6-methyl-5-(1-morphinolinylethyl)-2-(tetrahydro-2H-pyran-4-yl)indolizine-7-carboxamide] | < 0.1 µM | –
CCN(c1c(C)c(C(=O)NCc2c(C)cc(C)[nH]c2=O)cc2cc(-c3nccs3)cn12)C1CCOCC1 [Example 67, N-((4,6-dimethyl-2-oxo-1,2-dihydropyridin-3-yl)methyl)-5-(ethyl(tetrahydro-2H-pyran-4-yl)amino)-6-methyl-2-(thiazol-2-yl)indolizin-7-carboxamide] | 0.1 to 1 µM | –
Cc1cc(C)c(CNC(=O)c2cc3c(Br)ccn3c(C(C)N3CCOCC3)c2C)c(=O)[nH]1 (stereo not drawn) [Example 53, N-((4,6-dimethyl-2-oxo-1,2-dihydropyridin-3-yl)methyl)-6-methyl-5-(1-morphinolinylethyl)-2-(4,5,6,7-tetrahydrothiazolo[5,4-c]pyridin-2-yl)indolizine-7-carboxamide] | < 0.1 µM | –
Cc1cc(C)c(CNC(=O)c2cc3cccn3c(C(C)OCc3ccncc3)c2C)c(=O)[nH]1 (stereo not drawn) [Example 16, N-((4,6-dimethyl-2-oxo-1,2-dihydropyridin-3-yl)methyl)-6-methyl-5-(1-(pyridine-4-ylmethoxy)ethyl)indolizine-7-carboxamide] | 0.1 to 1 µM | –
